Experimental data taken from US9981972B2, “N-hydroxy bicyclic hydantoin carbamates as tools for identification of serine hydrolase targets” (ABIDE THERAPEUTICS, INC., priority 2014, dated 2018).

Key:
Assay type in all cases: biochemical
[1] = system: mouse LYPLA1/2 (quantified together); test: IC50 by gel-based competitive ABPP in vitro, mouse brain membrane proteome; details: mouse LYPLA1/2, in vitro; read-out: mLYPLA1/2 in vitro potency (IC50)
Description: Assay Overview: The purpose of this assay was to determine IC50 values of powder samples of test compounds for enzyme of interest activity, and anti-targets in a complex proteomic lysate using a gel-based competitive ABPP assay. In this assay, a complex proteome was incubated with test compound followed by reaction with FP-Rh and SDS-PAGE analysis as described above.
Protocol Summary: Soluble HeLa cell proteome (50 μL reaction volume, 1 mg/mL in DPBS) or mouse brain membrane proteome (50 μL reaction volume, 1 mg/mL in DPBS) was treated with varying concentrations of test compound (1 μL of a 50× stock in DMSO) for 30 minutes at 37° C. FP-Rh (1 μL of 50× stock in DMSO) was added to a final concentration of 2 μM. The reaction was incubated for 30 minutes at 25° C., quenched with 16 μL 4×SDS-PAGE loading buffer (reducing), separated by SDS-PAGE and visualized by in-gel fluorescent scanning. The percentage activity remaining was determined by measuring the integrated optical density of the enzymes of interest, and anti-target bands relative to a DMSO-only (no compound) control. IC50 values were determined from dose-response curves from three replicates at each inhibitor concentration: 1, 10, 100, 1000, 10000 nM and 0.01, 0.1, 1, 10, 100, 1000, 10000, 50000, and 100000 nM.

FAAH = molecular target: T1, FAAH (Mus musculus, UniProt O08914); test: Gel-based competitive ABPP in vitro, mouse brain membrane proteome; details: 10 μM, mouse brain (mem) proteome
T1 construct: from tissue; host or cells: mouse brain, membrane fraction
T1 sequence (O08914 1-579): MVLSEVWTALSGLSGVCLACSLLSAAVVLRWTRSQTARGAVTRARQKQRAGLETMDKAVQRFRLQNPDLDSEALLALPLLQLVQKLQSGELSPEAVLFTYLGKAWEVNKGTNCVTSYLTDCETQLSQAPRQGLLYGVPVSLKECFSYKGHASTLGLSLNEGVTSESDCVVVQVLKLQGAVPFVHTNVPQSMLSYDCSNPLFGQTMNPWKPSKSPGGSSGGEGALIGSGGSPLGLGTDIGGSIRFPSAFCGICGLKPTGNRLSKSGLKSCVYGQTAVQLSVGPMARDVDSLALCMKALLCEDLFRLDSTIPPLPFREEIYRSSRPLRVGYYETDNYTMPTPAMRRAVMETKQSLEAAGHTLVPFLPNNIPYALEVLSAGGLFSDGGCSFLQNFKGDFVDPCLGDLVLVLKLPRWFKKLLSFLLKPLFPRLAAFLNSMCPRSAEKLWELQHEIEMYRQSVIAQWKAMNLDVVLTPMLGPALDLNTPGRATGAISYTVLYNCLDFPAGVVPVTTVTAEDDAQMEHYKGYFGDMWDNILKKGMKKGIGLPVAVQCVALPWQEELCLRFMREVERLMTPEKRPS

LYPLA2 = molecular target: T2, LYPLA2 (Mus musculus, UniProt Q9WTL7); test: as above; details: 1 μM, mouse brain (mem) proteome
T2 construct: a complex proteome endogenously expressing LYPLA1/2 was incubated with test compound; from tissue; host or cells: mouse brain, membrane fraction
T2 sequence (Q9WTL7 whole entry): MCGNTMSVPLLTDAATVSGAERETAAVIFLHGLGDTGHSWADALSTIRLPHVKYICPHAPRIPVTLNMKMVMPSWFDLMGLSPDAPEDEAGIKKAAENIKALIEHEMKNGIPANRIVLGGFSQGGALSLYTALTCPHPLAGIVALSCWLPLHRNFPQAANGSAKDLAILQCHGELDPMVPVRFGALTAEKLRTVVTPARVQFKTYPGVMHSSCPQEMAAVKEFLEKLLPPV
Outline: (§1)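 Mouse brain membrane proteome (1 mg/mL in DPBS) was treated with compound (0.1-100 μM) for 30 min at 37 °C, then labeled with FP-Rh (2 μM final, 30 min, 25 °C). Bands were resolved by SDS-PAGE and scanned in-gel, with inhibition taken from band optical density versus DMSO. Targets counted as active or anti-targets at ≥50% inhibition.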

LYPLA1 = molecular target: T3, LYPLA1 (Mus musculus, UniProt P97823); test: as above; details: 1 μM, mouse brain (mem) proteome
T3 construct: a complex proteome endogenously expressing LYPLA1/2 was incubated with test compound; from tissue; host or cells: mouse brain, membrane fraction
T3 sequence (P97823 whole entry): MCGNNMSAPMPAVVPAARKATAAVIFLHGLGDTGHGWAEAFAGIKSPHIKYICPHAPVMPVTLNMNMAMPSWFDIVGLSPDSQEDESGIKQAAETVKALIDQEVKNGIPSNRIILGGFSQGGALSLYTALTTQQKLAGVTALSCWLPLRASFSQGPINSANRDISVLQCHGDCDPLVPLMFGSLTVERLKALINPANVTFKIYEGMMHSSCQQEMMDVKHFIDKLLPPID
Outline: as §1

Q: How did the IC50 [1] turn out when `O=C(ON1C(=O)[C@H]2CN(C(=O)N3CCOCC3)CCN2C1=O)N1CCC(CCc2ccc(Cl)cc2)CC1` [Compound 51, (R)-7-(morpholine-4-carbonyl)-1,3-dioxohexahydroimidazo[1,5-a]pyrazin-2(3H)-yl 4-(4-chloro-phenethyl)piperidine-1-carboxylate] was run?
A: The IC50 was 97 nM.

Q: What about the “FAAH in vitro enzyme activity, % @ 10 μM” value (FAAH) of the same molecule?
A: The value was 0% @.

Q: And the “LYPLA2 in vitro enzyme activity, % @ 1 μM” value (LYPLA2)?
A: The value was 100% @.

Q: And the “LYPLA1 in vitro enzyme activity, % @ 1 μM” value (LYPLA1)?
A: The value was 100% @.
